Key:
[1] = test system: Jurkat T-cells; test: Apoptosis in anti-CD3-treated Jurkat T-cells; assay type: cell-based, human
Method: A 24-hr incubation of Jurkat T-cells with SV40MEM and anti-CD3, caused greater than 85% of the cells to apoptose.

[2] = test system: 70Z/3 murine leukemia pre-B cells; test: LPS-stimulated surface antigen expression (κ Ig light chain, IL-2 receptor, CD45) in 70Z/3 cells; assay type: cell-based
Method: (§1) Expression of κ Ig, CD45, CD40, and the interleukin-2 receptor was assayed using standard enzyme-linked immunosorbent assays ("ELISAs") (see, Coligan et al. (eds.) (1991) Current Protocols in Immunology, Wiley & Sons, p. 2.10 or by FACS staining to measure cell-surface markers as described in Raff (1970) Immunology 19:637). Antibodies form cell surface markers were obtained from Pharmingen Co.
The effect of the SV40MEM polypeptide was compared with two additional polypeptides, […] (SEQ ID NO:2) (the "HIV-1MEM" polypeptide), which is composed of the membrane translocation domain of FGF flanked by the NLS from the HIV-1 matrix protein and […] (SEQ ID NO:3) (the "C-MYCMEM" polypeptide), which contains the NLS from the human c-myc oncoprotein (Chelsky et al. (1989), supra, and Dang et al. (1988), supra) using murine 70Z/3 pre-B cells.
Murine 70Z/3 cells (ATCC TlD-158) are a model cell line for analyzing the effects of compounds on B-cell differentiation. In response to S. typhosa LPS (Difco) or γ-interferon, these cells differentiate from surface κ immunoglobulin negative to κ Ig positive.
[…] of: (1) a peptide containing only the FGF signal sequence AAVALLPAVLLALLAP (SEQ ID NO:4) (the "MEM" peptide); (2) a polypeptide having the FGF signal sequence and the NLS of NF-κB p50 on the carboxy terminus of the signal sequence, namely, the NF-κBMEM polypeptide; (3) the SV40MEM polypeptide comprised of L-amino acids; or (4) the SV40MEM polypeptide comprised of D-amino acids. The cells were then incubated with LPS as described in Example 2 and assayed for expression of κ light chain expression.

[3] = test system: IκB; test: IκB degradation in LPS-activated 70Z/3 cells (Western analysis); assay type: cell-based, murine; details: 2 μM, LPS 100 ng/ml for 0-120 min
Method: IκB is an inhibitor of NF-κB nuclear translocation. When cells are activated by the appropriate proinflammatory stimulus, e.g., cytokines or LPS, IκB is degraded. […] This experiment was done to explore the effect of the SV40MEM polypeptide on IKB degradation in murine 70Z/3 cells.
Murine 70Z/3 cells (5×10^7 cells) were incubated with the SV40MEM polypeptide (2 μM) or PBS. The two groups of cells were subdivided into aliquots and activated with LPS (100 ng/ml) for 0, 15, 30, 60, or 120 min. The cells were lysed in 200 μL lysing buffer (20 mM N-(2-hydroxyethyl)piperazine-N'-(2-ethanesulfonic acid) ("HEPES"), pH 7.2, 20 mM NaCl, 2.5 mM MgCI2, 0.1% nonylphenoxy polyethoxy ethanol ("NP-40")). The lysates were frozen until analyzed for the presence of IκB by Western analysis using an antibody directed to the carboxy terminus of IκB (Santa Cruz Corp., Santa Cruz, Calif.) according to the manufacturer's instructions.

[4] = test system: HIVLAI in Jurkat cells; test: Nuclear translocation of HIV genome in Jurkat cells infected with HIVLAI (gag and 2-LTR circle PCR); assay type: cell-based, HIV-1; details: SV40MEM 0.1 and 1.0 μM; NF-κBMEM 10 μM; 24 hr, FIG. 8B
Method: HIV-1 M1 p24 levels were assayed using the procedures described in Smithgall et al (1995) AIDS Res. and Human Retrovirus 11:885. Proviral DNA content (gag) was measured using polymerase chain reaction analysis as described in Smithgall et al. (1995), supra.
2-LTR circles, a strictly nuclear form of HIV-1 DNA the expression of which indicates nuclear localization of the viral genome, was measured by as described in Bukrinsky et al (1991) Science 254:423.
Jurkat cells were incubated with the SV40MEM polypeptide for 3 hr with HIVLAI for 1-2 hr. The virus was washed out and the cultures supplemented with the appropriate inhibitor (SV40MEM, 0.1,μM and 1.0 μM; NF-κBMEM, 10 μM). After 24 hr, the cells were collected, lysed and evaluated for HIV-1 DNA by polymerase chain reaction analysis of gag sequences (see FIG. 8A) and 2-LTR circles (see FIG. 8B).

[5] = test system: 70Z/3 murine B-cells; test: LPS-induced CD40 expression in 70Z/3 cells; assay type: cell-based; details: 3 hr treatment prior to LPS, FIG. 5
Method: as §1
70Z/3 murine B-cells were treated with the SV40MEM polypeptide for 3 hr prior to activation with LPS. After activation with LPS, there was an approximately four-fold increase in CD40 expression above basal levels.

[6] = test system: BALB/c mice immunized with sheep red blood cells; test: Murine sheep red blood cell assay (anti-SRBC antibody response); assay type: in vivo
Method: Female BALB/c mice (6-8 weeks of age) were housed in groups of 5 in Thorne units with ad libitum access to food and water. Mice were immunized on day 0 by intravenous (IV) injection of 1×10^8 sheep red blood cells ("SRBCs"). The mice were then divided into groups of five and control solutions or inhibitory peptides were administered at various doses, either by IV injection or orally ("PO") by gavage with a 24-gauge feeding tube and routes.
The SV40MEM polypeptide was administered either intravenously (IV) or orally (PO) with the following schedule: IV administration of 5 mg/kg on days 0, 1, 2, and 3; PO administration of 1 mg/kg on days 0, 1, 2, 3, and 4. After 14 days, the mice were bled from the orbital sinus and the level of anti-SRBC antibodies were measured in the serum by ELISA. Briefly, Immulon 2 plates (Dynatech) were coated with SRBC membrane antigen (Anal. Biochem. 82:362-371 (1978)) at 5 μg/ml in 0.05 M carbonate/bicarbonate buffer (pH 9.6) and incubated overnight at 2-8° C. Plates were blocked for 1-hr at room temperature with Specimen Diluent Concentrate (Genetic Systems, Redmond, Wash.) diluted 1:10 with distilled water. The plates were washed in phosphate-buffered saline and 0.05% Tween-20 ("PBS/Tween"). Serum samples were diluted in Specimen Diluent and incubated for 1 hr at room temperature. After washing the plates in PBS/Tween, goat anti-mouse IgG1-horse radish peroxidase-conjugated ("IgG1-HRP") antibody (Southern Biotechnology, Birmingham Ala.) was added at 1:5000 dilution and incubated for 1 hr at room temperature. Plates were washed and conjugate binding was detected using 3,3',5,5'-tetramethylbenzidine ("TMB") (Genetic Systems) as the substrate. TMB was added and incubated for 15 min at room temperature. The reaction was stopped by the addition of 3 N H2 SO4. Absorbance at […] was recorded from duplicate samples using a microtiter plate reader (Bio Tek Instruments).

[7] = IV 5 mg/kg days 0-3, serum day 14, FIG. 11A
[8] = PO 1 mg/kg days 0-4, serum day 14, FIG. 11B

Sequence: PKKKRKVAAVALLPAVLLALLAPKKKRKVC [SV40MEM, FGF signal peptide hydrophobic region flanked by SV40 large T antigen NLS]
- cells undergoing apoptosis ([1]; 24-hr incubation with SV40MEM and anti-CD3): greater than 85%
- apoptosis ([1]; SV40MEM alone, without anti-CD3): Neither SV40MEM nor anti-CD3 alone caused significant apoptosis
- expression of CD45 ([2]; LPS-stimulated, FIG. 1A): no effect
- expression of the interleukin-2 receptor ([2]; LPS-stimulated, FIG. 1A): no effect
- inhibition of κ light chain expression ([2]; response to S. typhosa LPS, 1-hr pretreatment, FIG. 1A): 75-80%
- effect of increasing LPS concentration on the inhibitory effect ([2]; κ Ig light chain production, FIG. 1C): can be overcome by increasing the concentration of LPS
- degradation of IκB [3]: no apparent degradation of IκB
- translocation of the viral genome into the nucleus (2-LTR circles) [4]: inhibited translocation of the viral genome into the nucleus
- LPS-induced up-regulation of CD40 [5]: inhibited this up-regulation of CD40
- specific anti-SRBC response [6, 7]: inhibited
- total IgG levels [6, 7]: no effect
- specific anti-SRBC response [6, 8]: inhibited
- total IgG levels [6, 8]: no effect
